Measured values taken from the NIST ThermoML archive (doi:10.1016/j.jct.2004.07.027).

Assay: mn = molality of the nth substance listed, in mol/kg
Details: 350 kPa, Liquid, Extra sensitive DSC

C1COCCOCCOCCOCCOCCO1 [1,4,7,10,13,16-hexaoxacyclooctadecane] + O
Details | apparent molar heat capacity [J/K/mol]
278.15 K, m1 = 0.01001 | 748
278.15 K, m1 = 0.02001 | 740.4
278.15 K, m1 = 0.03002 | 741.5
278.15 K, m1 = 0.0401 | 742.3
278.15 K, m1 = 0.04995 | 746.2
278.15 K, m1 = 0.06015 | 746.9
278.15 K, m1 = 0.08002 | 744.3
278.15 K, m1 = 0.1224 | 740.8
278.15 K, m1 = 0.1472 | 738.5
278.15 K, m1 = 0.1935 | 734.51
278.15 K, m1 = 0.2925 | 725.83
283.15 K, m1 = 0.01001 | 768
283.15 K, m1 = 0.02001 | 764.2
283.15 K, m1 = 0.03002 | 764.8
283.15 K, m1 = 0.0401 | 765.6
283.15 K, m1 = 0.04995 | 769.1
283.15 K, m1 = 0.06015 | 769.3
283.15 K, m1 = 0.08002 | 767.2
283.15 K, m1 = 0.1224 | 764.3
283.15 K, m1 = 0.1472 | 762.46
283.15 K, m1 = 0.1935 | 759.11
283.15 K, m1 = 0.2925 | 751.64
288.15 K, m1 = 0.01001 | 788
288.15 K, m1 = 0.02001 | 782.4
288.15 K, m1 = 0.03002 | 783.2
288.15 K, m1 = 0.0401 | 785.4
288.15 K, m1 = 0.04995 | 788.8
288.15 K, m1 = 0.06015 | 788.7
288.15 K, m1 = 0.08002 | 786.6
288.15 K, m1 = 0.1224 | 784.29
288.15 K, m1 = 0.1472 | 782.67
288.15 K, m1 = 0.1935 | 779.7
288.15 K, m1 = 0.2925 | 773.51
293.15 K, m1 = 0.01001 | 805.9
293.15 K, m1 = 0.02001 | 800.2
293.15 K, m1 = 0.03002 | 800.8
293.15 K, m1 = 0.0401 | 803.3
293.15 K, m1 = 0.04995 | 806.1
293.15 K, m1 = 0.06015 | 806
293.15 K, m1 = 0.08002 | 804.3
293.15 K, m1 = 0.1224 | 802.22
293.15 K, m1 = 0.1472 | 800.93
293.15 K, m1 = 0.1935 | 798.36
293.15 K, m1 = 0.2925 | 793.29
298.15 K, m1 = 0.01001 | 820.2
298.15 K, m1 = 0.02001 | 817
298.15 K, m1 = 0.03002 | 817.3
298.15 K, m1 = 0.0401 | 820
298.15 K, m1 = 0.04995 | 822.2
298.15 K, m1 = 0.06015 | 822.4
298.15 K, m1 = 0.08002 | 820.7
298.15 K, m1 = 0.1224 | 819.28
298.15 K, m1 = 0.1472 | 818.39
298.15 K, m1 = 0.1935 | 816.04
298.15 K, m1 = 0.2925 | 811.91
303.15 K, m1 = 0.01001 | 836.9
303.15 K, m1 = 0.02001 | 832.9
303.15 K, m1 = 0.03002 | 833.1
303.15 K, m1 = 0.0401 | 836.5
303.15 K, m1 = 0.04995 | 838.6
303.15 K, m1 = 0.06015 | 838.4
303.15 K, m1 = 0.08002 | 836.6
303.15 K, m1 = 0.1224 | 835.6
303.15 K, m1 = 0.1472 | 835.12
303.15 K, m1 = 0.1935 | 832.91
303.15 K, m1 = 0.2925 | 829.51
308.15 K, m1 = 0.01001 | 852.1
308.15 K, m1 = 0.02001 | 847.8
308.15 K, m1 = 0.03002 | 848.2
308.15 K, m1 = 0.0401 | 852.3
308.15 K, m1 = 0.04995 | 853.8
308.15 K, m1 = 0.06015 | 853.6
308.15 K, m1 = 0.08002 | 852.2
308.15 K, m1 = 0.1224 | 851.14
308.15 K, m1 = 0.1472 | 850.86
308.15 K, m1 = 0.1935 | 849
308.15 K, m1 = 0.2925 | 846.24
313.15 K, m1 = 0.01001 | 866.4
313.15 K, m1 = 0.02001 | 862
313.15 K, m1 = 0.03002 | 862.5
313.15 K, m1 = 0.0401 | 867.6
313.15 K, m1 = 0.04995 | 868.8
313.15 K, m1 = 0.06015 | 868.4
313.15 K, m1 = 0.08002 | 867.4
313.15 K, m1 = 0.1224 | 866.13
313.15 K, m1 = 0.1472 | 866.03
313.15 K, m1 = 0.1935 | 864.46
313.15 K, m1 = 0.2925 | 862.08
318.15 K, m1 = 0.01001 | 881.2
318.15 K, m1 = 0.02001 | 875.7
318.15 K, m1 = 0.03002 | 875.9
318.15 K, m1 = 0.0401 | 881.8
318.15 K, m1 = 0.04995 | 882.5
318.15 K, m1 = 0.06015 | 882.3
318.15 K, m1 = 0.08002 | 881.7
318.15 K, m1 = 0.1224 | 880.23
318.15 K, m1 = 0.1472 | 880.31
318.15 K, m1 = 0.1935 | 878.85
318.15 K, m1 = 0.2925 | 876.99
323.15 K, m1 = 0.01001 | 893
323.15 K, m1 = 0.02001 | 888.8
323.15 K, m1 = 0.03002 | 888.4
323.15 K, m1 = 0.0401 | 894.9
323.15 K, m1 = 0.04995 | 895.6
323.15 K, m1 = 0.06015 | 895.5
323.15 K, m1 = 0.08002 | 894.7
323.15 K, m1 = 0.1224 | 893.76
323.15 K, m1 = 0.1472 | 893.83
323.15 K, m1 = 0.1935 | 892.3
323.15 K, m1 = 0.2925 | 890.8
328.15 K, m1 = 0.01001 | 904.7
328.15 K, m1 = 0.02001 | 900.1
328.15 K, m1 = 0.03002 | 900.3
328.15 K, m1 = 0.0401 | 907.2
328.15 K, m1 = 0.04995 | 907.7
328.15 K, m1 = 0.06015 | 907.3
328.15 K, m1 = 0.08002 | 906.8
328.15 K, m1 = 0.1224 | 905.99
328.15 K, m1 = 0.1472 | 906.11
328.15 K, m1 = 0.1935 | 904.68
328.15 K, m1 = 0.2925 | 903.37
333.15 K, m1 = 0.01001 | 915.3
333.15 K, m1 = 0.02001 | 910.7
333.15 K, m1 = 0.03002 | 911
333.15 K, m1 = 0.0401 | 918.1
333.15 K, m1 = 0.04995 | 918.5
333.15 K, m1 = 0.06015 | 918
333.15 K, m1 = 0.08002 | 917.5
333.15 K, m1 = 0.1224 | 916.74
333.15 K, m1 = 0.1472 | 917.09
333.15 K, m1 = 0.1935 | 915.79
333.15 K, m1 = 0.2925 | 914.65
